Results on 1 compound are retold here after ChEMBL document CHEMBL4765450, “The components and activities analysis of a novel anticoagulant candidate dHG-5” (Eur J Med Chem, 2020).

Assay [1] addresses T1, Coagulation factor VII (Homo sapiens) (UniProt P08709).
T1 sequence (whole entry): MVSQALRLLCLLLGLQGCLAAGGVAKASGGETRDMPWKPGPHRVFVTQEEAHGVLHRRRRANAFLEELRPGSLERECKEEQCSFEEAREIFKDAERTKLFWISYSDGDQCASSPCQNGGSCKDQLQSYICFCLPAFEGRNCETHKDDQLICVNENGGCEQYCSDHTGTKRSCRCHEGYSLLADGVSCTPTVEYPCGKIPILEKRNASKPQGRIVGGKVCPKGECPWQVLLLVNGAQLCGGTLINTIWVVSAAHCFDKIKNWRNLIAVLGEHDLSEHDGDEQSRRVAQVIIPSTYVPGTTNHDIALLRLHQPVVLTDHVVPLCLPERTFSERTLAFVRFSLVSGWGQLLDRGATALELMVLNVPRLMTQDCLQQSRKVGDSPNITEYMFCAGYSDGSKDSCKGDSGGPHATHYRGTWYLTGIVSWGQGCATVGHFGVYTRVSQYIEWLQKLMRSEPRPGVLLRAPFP
Kind of assay: Inhibition of factor 7a (unknown origin) at IC50 using pefachrome factor VIIa as substrate preincubated for 1 min followed by chromogenic substrate addition and measured for 2 mins. Particulars: time 3.0 min.

For assay [2], the target named is Coagulation factor X (Homo sapiens) (UniProt P00742). Kind of assay: Inhibition of factor 10a (unknown origin) at IC50 preincubated for 1 min followed by chromogenic substrate addition and measured for 2 mins. Conditions: time 3.0 min.
Sequence of Coagulation factor X (Homo sapiens) (P00742 41-179 limits assumed): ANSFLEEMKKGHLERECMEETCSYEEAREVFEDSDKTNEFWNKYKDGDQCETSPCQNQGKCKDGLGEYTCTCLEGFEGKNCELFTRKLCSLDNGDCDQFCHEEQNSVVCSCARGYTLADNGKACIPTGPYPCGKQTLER
Sequence of Coagulation factor X (Homo sapiens) (P00742 235-488 limits assumed): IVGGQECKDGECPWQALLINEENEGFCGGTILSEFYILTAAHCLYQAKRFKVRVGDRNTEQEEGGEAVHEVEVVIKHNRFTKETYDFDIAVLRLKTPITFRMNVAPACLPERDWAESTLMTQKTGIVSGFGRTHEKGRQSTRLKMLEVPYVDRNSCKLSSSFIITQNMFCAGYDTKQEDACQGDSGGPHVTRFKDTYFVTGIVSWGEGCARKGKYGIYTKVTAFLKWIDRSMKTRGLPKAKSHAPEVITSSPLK
In assay [3] the target is T2, Coagulation factor XII (Homo sapiens) (UniProt P00748).
T2 sequence (whole entry): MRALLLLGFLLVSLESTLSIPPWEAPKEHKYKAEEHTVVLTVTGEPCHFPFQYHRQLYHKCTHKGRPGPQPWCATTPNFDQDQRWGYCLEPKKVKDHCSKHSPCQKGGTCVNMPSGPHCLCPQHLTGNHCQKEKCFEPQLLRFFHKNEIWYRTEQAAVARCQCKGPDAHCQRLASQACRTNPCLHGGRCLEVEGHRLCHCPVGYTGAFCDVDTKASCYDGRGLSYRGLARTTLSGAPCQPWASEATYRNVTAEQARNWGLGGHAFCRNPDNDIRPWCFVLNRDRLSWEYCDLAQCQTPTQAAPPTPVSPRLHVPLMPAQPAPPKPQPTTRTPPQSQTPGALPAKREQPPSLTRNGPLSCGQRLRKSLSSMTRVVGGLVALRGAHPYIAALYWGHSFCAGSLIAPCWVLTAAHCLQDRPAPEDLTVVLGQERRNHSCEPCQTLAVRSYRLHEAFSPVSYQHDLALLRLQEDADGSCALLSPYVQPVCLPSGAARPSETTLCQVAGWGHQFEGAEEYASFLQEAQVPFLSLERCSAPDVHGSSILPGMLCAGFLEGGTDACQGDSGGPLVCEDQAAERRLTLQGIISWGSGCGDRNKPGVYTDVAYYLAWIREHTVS
Kind of assay: Inhibition of factor 12a (unknown origin) at IC50 using kallikrein chromogenic substrate preincubated for 1 min followed by chromogenic substrate addition and measured for 2 mins. Particulars: time 3.0 min.

Assay [4] deals with T1, Coagulation factor VII (Homo sapiens). Kind of assay: Inhibition of factor 7a (unknown origin) at IC50 using pefachrome factor VIIa as substrate preincubated for 1 min followed by chromogenic substrate addition and measured for 2 mins in presence of AT-III. Particulars: time 3.0 min.
Assay [5] deals with Coagulation factor X (Homo sapiens) (UniProt P00742). The experiment in a line: Inhibition of factor 10a (unknown origin) at IC50 preincubated for 1 min followed by chromogenic substrate addition and measured for 2 mins in presence of AT-III. Particulars: time 3.0 min.
In assay [6] the target is T2, Coagulation factor XII (Homo sapiens). Kind of assay: Inhibition of factor 12a (unknown origin) at IC50 using kallikrein chromogenic substrate preincubated for 1 min followed by chromogenic substrate addition and measured for 2 mins in presence of AT-III. Particulars: time 3.0 min.
Assay [7] concerns the target T3, Coagulation factor IX/VIII (Homo sapiens) (UniProt P00740+P00451). The experiment in a line: Inhibition of human citrated plasma iXase (factor 8a-factor 9a complex) assessed as activity potency of oligosaccharides multiplied by the percentage of oligosaccharides in dHG-5 preincubated for 2 mins followed by factor 10 addition and measured after 1 min by FXa chromogenic substrate SXa-11 based assay relative to dHG-5. It counts as protein-complex assay. Conditions: time 3.0 min.

The test system of assay [8] is Plasma. The experiment in a line: Anticoagulation activity in human plasma assessed as drug level causing 20 times doubling of APTT by measuring activity potency of oligosaccharides multiplied by the percentage of oligosaccharides in dHG-5 preincubated for 2 mins followed by APTT reagent and measured after 3 mins by coagulometric method relative to dHG-5. Type of assay: functional. Particulars: time 5 min.

Assay [9] concerns the target Coagulation factor X (Homo sapiens) (UniProt P00742). The experiment in a line: Inhibition of factor 10a (unknown origin) at IC90 preincubated for 1 min followed by chromogenic substrate addition and measured for 2 mins in presence of AT-III relative to control. Conditions: time 3.0 min.
The target of assay [10] is Prothrombin (Homo sapiens) (UniProt P00734). The experiment in a line: Inhibition of factor 2a (unknown origin) at IC50 preincubated for 1 min followed by chromogenic substrate addition and measured for 2 mins in presence of AT-III. Conditions: time 3.0 min.
Assay [11] has as its system Rattus norvegicus. The experiment in a line: Antithrombotic activity in thromboplastin and stasis-induced Sprague-Dawley rat deep venous thrombosis model assessed as reduction in venous thrombosis by measuring activity potency of oligosaccharides multiplied by the percentage of oligosaccharides in dHG-5 at 1.84 mg/kg, sc administered 1 hr prior to thromboplastin addition for 20 secs followed by establishment of stasis for 20 mins relative to dHG-5. It counts as functional. Particulars: time 80.33 min, 1.339 h.

Assay [12] concerns Plasma. The experiment in a line: Anticoagulation activity in human plasma assessed as drug level causing 20 times doubling of APTT preincubated for 2 mins followed by APTT reagent and measured after 3 mins by coagulometric method relative to dHG-5. Type of assay: functional. Conditions: time 5 min.
Assay [13] has as its target T4, Coagulation factor IX (Homo sapiens, UniProt P00740). The experiment in a line: Inhibition of factor 9a (unknown origin) binding to immobilized biotinylated oHG-11 assessed as activity potency of oligosaccharides multiplied by the percentage of oligosaccharides in dHG-5 by biolayer interferometry relative to dHG-5.
Assay [14] deals with Rattus norvegicus. Kind of assay: Antithrombotic activity in thromboplastin and stasis-induced Sprague-Dawley rat deep venous thrombosis model assessed as reduction in venous thrombosis at 1.84 mg/kg, sc administered 1 hr prior to thromboplastin addition for 20 secs followed by establishment of stasis for 20 mins relative to dHG-5. It counts as functional. Particulars: time 80.33 min, 1.339 h.

The target of assay [15] is Prothrombin (Homo sapiens) (UniProt P00734). The experiment in a line: Inhibition of factor 2a (unknown origin) at IC50 preincubated for 1 min followed by chromogenic substrate addition and measured for 2 mins. Particulars: time 3.0 min.
Assay [16] concerns the target Coagulation factor XI (Homo sapiens) (UniProt P03951). The experiment in a line: Inhibition of factor 11a (unknown origin) at IC90 using S-2366 as substrate preincubated for 1 min followed by chromogenic substrate addition and measured for 2 mins in presence of AT-III. Particulars: time 3.0 min.
For assay [17] the target is unchanged. The experiment in a line: Inhibition of factor 11a (unknown origin) at IC50 using S-2366 as substrate preincubated for 1 min followed by chromogenic substrate addition and measured for 2 mins in presence of AT-III. Particulars: time 3.0 min.
In assay [18] the target is T3, Coagulation factor IX/VIII (Homo sapiens). Kind of assay: Inhibition of human citrated plasma iXase (factor 8a-factor 9a complex) preincubated for 2 mins followed by factor 10 addition and measured after 1 min by FXa chromogenic substrate SXa-11 based assay relative to dHG-5. Type of assay: protein-complex assay. Conditions: time 3.0 min.
The target of assay [19] is Prothrombin (Homo sapiens) (UniProt P00734). The experiment in a line: Inhibition of factor 2a (unknown origin) at IC90 preincubated for 1 min followed by chromogenic substrate addition and measured for 2 mins in presence of AT-III. Particulars: time 3.0 min.
In assay [20] the target is T4, Coagulation factor IX. The experiment in a line: Inhibition of factor 9a (unknown origin) binding to immobilized biotinylated oHG-11 by biolayer interferometry relative to dHG-5.
For assay [21], the target named is Coagulation factor XI (Homo sapiens) (UniProt P03951). The experiment in a line: Inhibition of factor 11a (unknown origin) at IC50 using S-2366 as substrate preincubated for 1 min followed by chromogenic substrate addition and measured for 2 mins. Conditions: time 3.0 min.
Sequence of Coagulation factor XI (Homo sapiens) (P03951 19-387 limits assumed): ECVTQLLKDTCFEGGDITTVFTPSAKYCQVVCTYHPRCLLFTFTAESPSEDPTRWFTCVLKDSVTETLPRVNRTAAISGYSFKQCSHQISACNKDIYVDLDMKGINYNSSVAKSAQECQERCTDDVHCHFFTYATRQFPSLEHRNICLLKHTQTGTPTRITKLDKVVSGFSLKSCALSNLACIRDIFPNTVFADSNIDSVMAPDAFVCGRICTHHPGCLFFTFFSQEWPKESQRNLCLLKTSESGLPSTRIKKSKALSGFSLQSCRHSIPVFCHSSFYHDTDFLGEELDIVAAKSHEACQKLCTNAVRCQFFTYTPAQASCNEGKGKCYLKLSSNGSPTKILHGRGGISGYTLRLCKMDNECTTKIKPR
Sequence of Coagulation factor XI (Homo sapiens) (P03951 388-625 limits assumed): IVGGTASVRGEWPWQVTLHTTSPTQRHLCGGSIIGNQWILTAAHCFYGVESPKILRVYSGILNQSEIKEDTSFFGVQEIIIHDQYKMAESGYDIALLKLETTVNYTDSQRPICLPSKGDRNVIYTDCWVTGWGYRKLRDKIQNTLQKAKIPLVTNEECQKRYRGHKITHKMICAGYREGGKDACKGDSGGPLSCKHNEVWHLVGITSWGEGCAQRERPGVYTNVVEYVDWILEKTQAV

Calls of active or inactive are those of the source. The rule behind the calls is not given here.

T4 sequence (P00740 47-191 limits assumed): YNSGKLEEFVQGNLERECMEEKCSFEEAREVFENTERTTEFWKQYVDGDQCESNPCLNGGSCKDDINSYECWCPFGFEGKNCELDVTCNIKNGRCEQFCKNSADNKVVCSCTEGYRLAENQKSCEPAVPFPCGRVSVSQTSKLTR
T4 sequence (P00740 227-461 limits assumed): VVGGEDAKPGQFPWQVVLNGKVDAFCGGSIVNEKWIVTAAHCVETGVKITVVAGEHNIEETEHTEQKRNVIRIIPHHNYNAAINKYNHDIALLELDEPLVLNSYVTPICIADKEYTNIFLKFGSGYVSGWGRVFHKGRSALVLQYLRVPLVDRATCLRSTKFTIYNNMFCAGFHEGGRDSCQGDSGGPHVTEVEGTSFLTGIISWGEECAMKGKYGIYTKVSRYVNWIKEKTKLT

Consider `CC(=O)N[C@H]1[C@H](O[C@@H]([C@H](O[C@@H]2O[C@@H](C)[C@@H](OS(=O)(=O)[O-])[C@@H](OS(=O)(=O)O)[C@@H]2O)[C@@H](O)CO)[C@H](O)C(=O)[O-])O[C@H](COS(=O)(=O)[O-])[C@H](OS(=O)(=O)[O-])[C@@H]1O[C@@H]1O[C@H](C(=O)[O-])[C@@H](O[C@@H]2O[C@H](COS(=O)(=O)[O-])[C@H](OS(=O)(=O)[O-])[C@H](O[C@@H]3O[C@H](C(=O)[O-])[C@@H](O[C@@H]4O[C@H](COS(=O)(=O)[O-])[C@H](OS(=O)(=O)[O-])[C@H](O[C@@H]5O[C@H](C(=O)[O-])[C@@H](O[C@@H]6O[C@H](COS(=O)(=O)[O-])[C@H](OS(=O)(=O)[O-])[C@H](O[C@@H]7O[C@H](C(=O)[O-])[C@@H](O[C@@H]8O[C@H](COS(=O)(=O)[O-])[C@H](OS(=O)(=O)[O-])[C@H](O[C@@H]9O[C@H](C(=O)[O-])[C@@H](O[C@@H]%10O[C@H](COS(=O)(=O)[O-])[C@H](OS(=O)(=O)[O-])[C@H](O[C@@H]%11OC(C(=O)[O-])=C[C@H](O[C@@H]%12O[C@@H](C)[C@@H](OS(=O)(=O)[O-])[C@@H](OS(=O)(=O)O)[C@@H]%12O)[C@H]%11O)[C@H]%10NC(C)=O)[C@H](O[C@@H]%10O[C@@H](C)[C@@H](OS(=O)(=O)[O-])[C@@H](OS(=O)(=O)O)[C@@H]%10O)[C@H]9O)[C@H]8NC(C)=O)[C@H](O[C@@H]8O[C@@H](C)[C@@H](OS(=O)(=O)[O-])[C@@H](OS(=O)(=O)O)[C@@H]8O)[C@H]7O)[C@H]6NC(C)=O)[C@H](O[C@@H]6O[C@@H](C)[C@@H](OS(=O)(=O)[O-])[C@@H](OS(=O)(=O)O)[C@@H]6O)[C@H]5O)[C@H]4NC(C)=O)[C@H](O[C@@H]4O[C@@H](C)[C@@H](OS(=O)(=O)[O-])[C@@H](OS(=O)(=O)O)[C@@H]4O)[C@H]3O)[C@H]2NC(C)=O)[C@H](O[C@@H]2O[C@@H](C)[C@@H](OS(=O)(=O)[O-])[C@@H](OS(=O)(=O)O)[C@@H]2O)[C@H]1O.[Na+].[Na+].[Na+].[Na+].[Na+].[Na+].[Na+].[Na+].[Na+].[Na+].[Na+].[Na+].[Na+].[Na+].[Na+].[Na+].[Na+].[Na+].[Na+].[Na+].[Na+].[Na+].[Na+].[Na+].[Na+].[Na+]`, for which, in assay [1], the “inhibition (active/not active)” value is “inactive”. The inhibition result in assay [2], in [3], in assay [4], in assay [5], in [6] and in assay [9] was “inactive” each time. Besides, the inhibition entry in assay [10], in assay [15], in assay [17] and in assay [21] was “inactive” in each case. Further, the Ratio in [7] amounted to 24.4 U; in assay [8] it was 22.82 U; in [11] it was 23.93 U; in [12], 203.41 U; in assay [13] it was 13.1 U; in assay [14], 213.7 U. The Ratio is 217 U in assay [18] and 116 U in [20]. The inhibition result in [16] and in [19] was “Active” each time.
